Reference: PMC8213057, “Targeting ALK2: An Open Science Approach to Developing Therapeutics for the Treatment of Diffuse Intrinsic Pontine Glioma” (Journal of Medicinal Chemistry, 2020)

Key:
CDK19/cyclin C = CDK19/cyclin C (Homo sapiens, UniProt Q9BWU1); experiment: biochemical; details: read-out: % enzyme activity, 1 μM; Run 1, Run 2
GSK3b = GSK3b (Homo sapiens, UniProt P49841); details: 1 μM; Run 1, Run 2
PKCb2 = PKCb2 (Homo sapiens, UniProt P05771); experiment: biochemical; details: read-out: % enzyme activity, 1 μM; Run 1, Run 2
MARK1 = MARK1 (Homo sapiens, UniProt Q9P0L2); experiment: biochemical; details: read-out: % enzyme activity, 1 μM; Run 1, Run 2
CDK14/cyclin Y (PFTK1) = CDK14/cyclin Y (PFTK1) (Homo sapiens, UniProt O94921); details: 1 μM; Run 1, Run 2
CDK4/cyclin D1 = CDK4/cyclin D1 (Homo sapiens, UniProt P11802); experiment: biochemical; details: read-out: % enzyme activity, 1 μM; Run 1, Run 2
MRCKb/CDC42BPB = MRCKb/CDC42BPB (Homo sapiens, UniProt Q9Y5S2); details: 1 μM; Run 1, Run 2
MAK = target: T1, MAK (Homo sapiens, UniProt P20794); experiment: biochemical; details: read-out: % enzyme activity, 1 μM; Run 1, Run 2
T1 sequence (P20794 1-623): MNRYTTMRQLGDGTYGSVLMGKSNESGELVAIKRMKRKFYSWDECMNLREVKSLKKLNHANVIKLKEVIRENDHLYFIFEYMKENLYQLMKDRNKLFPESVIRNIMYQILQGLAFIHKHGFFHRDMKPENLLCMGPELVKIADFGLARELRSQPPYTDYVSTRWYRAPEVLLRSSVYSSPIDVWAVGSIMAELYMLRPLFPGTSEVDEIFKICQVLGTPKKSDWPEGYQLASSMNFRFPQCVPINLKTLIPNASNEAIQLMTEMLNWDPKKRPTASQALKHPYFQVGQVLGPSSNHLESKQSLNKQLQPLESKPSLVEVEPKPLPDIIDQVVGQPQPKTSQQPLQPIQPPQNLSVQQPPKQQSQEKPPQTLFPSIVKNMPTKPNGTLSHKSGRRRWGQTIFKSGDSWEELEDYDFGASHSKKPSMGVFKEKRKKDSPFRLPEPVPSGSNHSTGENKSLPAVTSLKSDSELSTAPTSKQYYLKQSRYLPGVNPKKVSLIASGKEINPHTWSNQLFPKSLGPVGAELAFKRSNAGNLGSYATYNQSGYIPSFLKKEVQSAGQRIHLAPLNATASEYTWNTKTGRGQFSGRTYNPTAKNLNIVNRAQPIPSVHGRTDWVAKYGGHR

IKKb/IKBKB = target: T2, IKKb/IKBKB (Homo sapiens, UniProt O14920); details: 1 μM; Run 1, Run 2
T2 sequence (O14920 1-756): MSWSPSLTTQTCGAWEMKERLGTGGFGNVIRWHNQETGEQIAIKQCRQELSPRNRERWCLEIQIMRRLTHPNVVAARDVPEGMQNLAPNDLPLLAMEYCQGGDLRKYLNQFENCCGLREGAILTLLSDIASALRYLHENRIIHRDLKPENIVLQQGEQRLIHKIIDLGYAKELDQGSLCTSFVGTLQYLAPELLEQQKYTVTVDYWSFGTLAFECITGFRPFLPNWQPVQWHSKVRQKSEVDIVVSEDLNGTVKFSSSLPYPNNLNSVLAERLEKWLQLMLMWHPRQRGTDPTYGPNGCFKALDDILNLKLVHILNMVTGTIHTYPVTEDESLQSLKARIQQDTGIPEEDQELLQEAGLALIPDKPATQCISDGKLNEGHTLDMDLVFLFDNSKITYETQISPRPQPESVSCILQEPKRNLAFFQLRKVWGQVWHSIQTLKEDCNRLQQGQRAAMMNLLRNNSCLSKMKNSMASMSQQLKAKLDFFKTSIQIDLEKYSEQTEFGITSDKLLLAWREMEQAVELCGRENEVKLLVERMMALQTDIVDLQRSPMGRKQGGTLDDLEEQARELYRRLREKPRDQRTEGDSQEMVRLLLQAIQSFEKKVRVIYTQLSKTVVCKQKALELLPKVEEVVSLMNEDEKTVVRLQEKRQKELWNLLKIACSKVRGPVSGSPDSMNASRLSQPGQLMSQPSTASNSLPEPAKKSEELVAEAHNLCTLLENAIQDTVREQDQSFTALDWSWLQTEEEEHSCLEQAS

Sequence of MRCKb/CDC42BPB (Q9Y5S2 whole entry): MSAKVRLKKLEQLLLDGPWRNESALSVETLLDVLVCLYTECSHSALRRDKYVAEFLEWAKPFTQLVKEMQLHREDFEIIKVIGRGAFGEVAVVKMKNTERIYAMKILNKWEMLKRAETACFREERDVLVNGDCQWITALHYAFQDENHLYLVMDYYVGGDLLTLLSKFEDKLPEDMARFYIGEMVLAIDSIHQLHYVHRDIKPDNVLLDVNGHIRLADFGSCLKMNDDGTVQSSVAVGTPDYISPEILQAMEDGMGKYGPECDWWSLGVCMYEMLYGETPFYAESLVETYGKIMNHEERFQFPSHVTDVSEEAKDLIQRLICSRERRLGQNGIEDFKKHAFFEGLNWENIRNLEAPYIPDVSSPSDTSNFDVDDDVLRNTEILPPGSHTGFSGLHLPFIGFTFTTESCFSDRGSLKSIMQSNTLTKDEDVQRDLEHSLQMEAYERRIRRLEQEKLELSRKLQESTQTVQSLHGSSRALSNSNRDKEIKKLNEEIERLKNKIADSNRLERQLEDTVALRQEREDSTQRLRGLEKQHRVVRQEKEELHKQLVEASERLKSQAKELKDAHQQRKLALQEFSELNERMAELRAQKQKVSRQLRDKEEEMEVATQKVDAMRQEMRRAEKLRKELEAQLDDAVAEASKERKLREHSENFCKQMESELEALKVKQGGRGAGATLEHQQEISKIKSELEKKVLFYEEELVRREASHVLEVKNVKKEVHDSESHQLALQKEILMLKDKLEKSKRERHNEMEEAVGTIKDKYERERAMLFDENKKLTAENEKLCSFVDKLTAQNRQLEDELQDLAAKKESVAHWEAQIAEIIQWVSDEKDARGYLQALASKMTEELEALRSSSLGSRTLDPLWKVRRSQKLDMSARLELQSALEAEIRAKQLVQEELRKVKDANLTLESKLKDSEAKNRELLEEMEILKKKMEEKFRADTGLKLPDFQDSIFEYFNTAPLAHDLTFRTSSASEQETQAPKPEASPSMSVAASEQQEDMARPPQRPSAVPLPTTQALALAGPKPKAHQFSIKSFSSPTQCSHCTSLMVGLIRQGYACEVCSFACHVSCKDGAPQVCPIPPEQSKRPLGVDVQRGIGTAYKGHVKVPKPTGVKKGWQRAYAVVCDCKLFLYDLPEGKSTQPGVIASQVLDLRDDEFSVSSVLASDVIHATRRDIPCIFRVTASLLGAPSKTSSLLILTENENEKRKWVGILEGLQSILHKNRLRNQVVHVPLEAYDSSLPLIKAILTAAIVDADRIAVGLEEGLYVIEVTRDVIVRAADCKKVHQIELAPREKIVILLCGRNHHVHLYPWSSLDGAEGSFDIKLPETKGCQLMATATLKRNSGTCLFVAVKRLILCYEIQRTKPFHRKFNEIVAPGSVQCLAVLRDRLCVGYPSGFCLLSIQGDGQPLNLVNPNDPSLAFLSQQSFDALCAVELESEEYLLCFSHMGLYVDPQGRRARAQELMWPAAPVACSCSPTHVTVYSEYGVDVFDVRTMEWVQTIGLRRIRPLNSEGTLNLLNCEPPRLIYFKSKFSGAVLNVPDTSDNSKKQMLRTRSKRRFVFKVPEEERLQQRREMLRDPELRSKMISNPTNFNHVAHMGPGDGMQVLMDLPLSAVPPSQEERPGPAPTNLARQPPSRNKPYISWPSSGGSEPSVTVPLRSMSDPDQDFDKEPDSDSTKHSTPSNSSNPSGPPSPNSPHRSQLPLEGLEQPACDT
Sequence of GSK3b (P49841 whole entry): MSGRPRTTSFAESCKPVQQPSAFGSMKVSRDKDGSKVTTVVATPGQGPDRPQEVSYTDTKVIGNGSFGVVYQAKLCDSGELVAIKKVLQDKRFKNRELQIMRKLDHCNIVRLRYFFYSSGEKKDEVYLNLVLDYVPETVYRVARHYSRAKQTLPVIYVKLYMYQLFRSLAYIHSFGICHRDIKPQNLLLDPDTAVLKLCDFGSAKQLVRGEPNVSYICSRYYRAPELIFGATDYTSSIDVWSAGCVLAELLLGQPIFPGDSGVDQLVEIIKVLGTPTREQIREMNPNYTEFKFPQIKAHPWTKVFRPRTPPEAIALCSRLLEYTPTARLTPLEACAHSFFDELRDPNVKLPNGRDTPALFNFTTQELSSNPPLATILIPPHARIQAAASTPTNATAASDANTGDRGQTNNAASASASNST
Sequence of PKCb2 (P05771 1-673 isoform P05771-2): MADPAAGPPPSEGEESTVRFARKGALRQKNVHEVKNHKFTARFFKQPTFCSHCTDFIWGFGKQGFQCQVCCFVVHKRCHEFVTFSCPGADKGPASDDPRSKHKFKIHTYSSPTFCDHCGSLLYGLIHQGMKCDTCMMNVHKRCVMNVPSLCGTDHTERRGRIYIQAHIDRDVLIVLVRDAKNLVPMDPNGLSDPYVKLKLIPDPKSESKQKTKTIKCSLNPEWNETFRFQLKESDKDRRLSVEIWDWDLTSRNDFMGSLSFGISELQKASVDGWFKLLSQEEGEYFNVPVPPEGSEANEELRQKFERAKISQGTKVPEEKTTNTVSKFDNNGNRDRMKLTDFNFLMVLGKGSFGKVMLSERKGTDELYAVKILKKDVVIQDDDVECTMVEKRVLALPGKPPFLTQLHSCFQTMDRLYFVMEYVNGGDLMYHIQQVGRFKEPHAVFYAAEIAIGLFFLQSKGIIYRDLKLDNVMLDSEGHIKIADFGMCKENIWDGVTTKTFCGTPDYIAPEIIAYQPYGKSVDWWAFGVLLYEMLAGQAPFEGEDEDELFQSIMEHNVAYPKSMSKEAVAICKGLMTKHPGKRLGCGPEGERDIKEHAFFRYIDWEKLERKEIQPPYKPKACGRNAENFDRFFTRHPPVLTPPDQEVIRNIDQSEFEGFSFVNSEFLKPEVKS
Sequence of CDK14/cyclin Y (PFTK1) (O94921 whole entry): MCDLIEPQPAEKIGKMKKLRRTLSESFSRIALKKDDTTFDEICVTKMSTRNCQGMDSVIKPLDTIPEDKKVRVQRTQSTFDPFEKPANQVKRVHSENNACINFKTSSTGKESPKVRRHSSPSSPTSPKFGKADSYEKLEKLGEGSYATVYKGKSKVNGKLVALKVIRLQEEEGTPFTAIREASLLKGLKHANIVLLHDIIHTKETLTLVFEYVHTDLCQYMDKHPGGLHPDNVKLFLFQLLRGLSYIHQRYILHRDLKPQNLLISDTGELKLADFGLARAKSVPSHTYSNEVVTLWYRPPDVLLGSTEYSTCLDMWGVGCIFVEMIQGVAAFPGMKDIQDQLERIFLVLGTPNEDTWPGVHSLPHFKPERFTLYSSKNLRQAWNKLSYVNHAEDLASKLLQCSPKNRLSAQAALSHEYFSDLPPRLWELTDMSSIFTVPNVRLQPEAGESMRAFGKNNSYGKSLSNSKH
Sequence of CDK14/cyclin Y (PFTK1) (Q8ND76 whole entry partner): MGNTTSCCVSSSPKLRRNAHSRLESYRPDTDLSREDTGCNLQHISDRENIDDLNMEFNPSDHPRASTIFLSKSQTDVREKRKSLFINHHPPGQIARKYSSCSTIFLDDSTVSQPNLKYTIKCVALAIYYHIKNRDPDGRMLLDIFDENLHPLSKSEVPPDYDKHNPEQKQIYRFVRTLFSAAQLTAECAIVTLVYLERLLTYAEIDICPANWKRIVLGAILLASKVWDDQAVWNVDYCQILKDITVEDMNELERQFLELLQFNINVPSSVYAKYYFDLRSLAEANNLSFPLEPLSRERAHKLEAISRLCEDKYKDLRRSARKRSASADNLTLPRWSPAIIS
Sequence of CDK19/cyclin C (Q9BWU1 whole entry): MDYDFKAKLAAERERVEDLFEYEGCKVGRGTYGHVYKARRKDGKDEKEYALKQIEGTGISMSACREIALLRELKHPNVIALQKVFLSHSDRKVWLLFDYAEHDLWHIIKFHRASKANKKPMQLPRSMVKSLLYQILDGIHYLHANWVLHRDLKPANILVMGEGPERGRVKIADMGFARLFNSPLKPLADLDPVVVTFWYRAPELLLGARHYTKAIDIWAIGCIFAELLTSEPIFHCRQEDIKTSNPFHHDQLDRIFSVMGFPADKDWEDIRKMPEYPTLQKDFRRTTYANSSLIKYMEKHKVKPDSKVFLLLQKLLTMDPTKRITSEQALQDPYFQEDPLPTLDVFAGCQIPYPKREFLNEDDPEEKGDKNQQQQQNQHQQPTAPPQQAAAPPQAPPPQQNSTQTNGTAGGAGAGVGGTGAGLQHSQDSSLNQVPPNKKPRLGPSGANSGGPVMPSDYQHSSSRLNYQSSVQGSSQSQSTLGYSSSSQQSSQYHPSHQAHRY
Sequence of CDK19/cyclin C (P24863 whole entry partner): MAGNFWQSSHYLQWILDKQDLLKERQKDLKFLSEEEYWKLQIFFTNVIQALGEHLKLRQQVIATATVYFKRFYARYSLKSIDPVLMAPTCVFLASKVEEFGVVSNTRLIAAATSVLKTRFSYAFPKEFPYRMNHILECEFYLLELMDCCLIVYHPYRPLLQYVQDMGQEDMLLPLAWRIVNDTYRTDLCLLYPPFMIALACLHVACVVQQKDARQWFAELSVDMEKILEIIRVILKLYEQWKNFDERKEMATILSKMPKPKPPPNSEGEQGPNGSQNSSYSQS
Sequence of CDK4/cyclin D1 (P11802 whole entry): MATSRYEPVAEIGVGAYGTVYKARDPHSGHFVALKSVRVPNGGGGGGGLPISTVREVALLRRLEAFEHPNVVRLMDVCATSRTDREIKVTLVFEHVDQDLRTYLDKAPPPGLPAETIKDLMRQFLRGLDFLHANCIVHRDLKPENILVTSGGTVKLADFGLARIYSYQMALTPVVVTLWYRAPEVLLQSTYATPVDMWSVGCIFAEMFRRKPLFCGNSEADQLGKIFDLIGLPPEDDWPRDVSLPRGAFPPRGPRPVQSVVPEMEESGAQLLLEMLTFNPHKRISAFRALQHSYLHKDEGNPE
Sequence of CDK4/cyclin D1 (P24385 whole entry partner): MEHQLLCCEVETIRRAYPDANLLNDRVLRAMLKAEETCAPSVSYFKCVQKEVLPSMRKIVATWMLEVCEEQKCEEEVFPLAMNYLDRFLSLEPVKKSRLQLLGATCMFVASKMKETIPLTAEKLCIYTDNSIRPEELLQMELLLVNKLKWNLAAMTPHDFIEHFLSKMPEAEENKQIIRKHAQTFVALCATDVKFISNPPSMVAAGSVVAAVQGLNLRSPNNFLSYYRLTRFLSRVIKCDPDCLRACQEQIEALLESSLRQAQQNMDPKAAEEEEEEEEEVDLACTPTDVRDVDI

SMILES | remaining activity at 1 µM (CDK19/cyclin C) [%] | % enzyme activity (GSK3b) [%] | remaining activity at 1 µM (PKCb2) [%] | remaining activity at 1 µM (MARK1) [%] | % enzyme activity (CDK14/cyclin Y (PFTK1)) [%] | remaining activity at 1 µM (CDK4/cyclin D1) [%] | % enzyme activity (MRCKb/CDC42BPB) [%] | remaining activity at 1 µM (MAK) [%] | % enzyme activity (IKKb/IKBKB) [%]
COc1cc(-c2cncc(-c3ccc(N4CCN(C)CC4)cc3)c2C)cc(F)c1C(N)=O [Compound 26a, 2-Fluoro-6-methoxy-4-(4-methyl-5-(4-(4-methylpiperazin-1-yl)phenyl)pyridin-3-yl)benzamide] | 79.1 | 84.98 | 107 | 88 | 98.24 | 99.4 | 94.42 | 99.2 | 101.39
COc1cc(-c2cncc(-c3ccc(N4C[C@@H](C)N(C)[C@@H](C)C4)cc3)c2C)cc(F)c1C(N)=O [Compound 26c, 2-Fluoro-6-methoxy-4-(4-methyl-5-(4-((3R,5S)-3,4,5-trimethylpiperazin-1-yl)phenyl)pyridin-3-yl)benzamide] | 87.1 | 88.83 | 99.1 | 94.1 | 99.61 | 100 | 99.47 | 119 | 100.59
